Source: patent publication US20250346585A1 (Alexion Pharmaceuticals, Inc., priority 2022, published 2025)

Biological target: Human complement C1s enzyme (Homo sapiens (Human), UniProt P09871)
Assay: Human C1s enzyme assay
Assay type: biochemical
Conditions: Human complement C1s enzyme 1.16 nM, substrate Z-L-Lys-SBzl 100 μM, assay of Example 3; read-out: IC50 (Stars)
In short: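 IC50 derived by nonlinear regression of rate versus concentration, with rate taken from A405 kinetics (30 s intervals, 30 min) after adding 100 μM each Z-L-Lys-SBzl and DTNB. C1s from human serum, 1.16 nM, exposed to compound for 5 min at RT beforehand; buffer 50 mM Tris, 1 M NaCl, pH 7.5.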

Sequence of Human complement C1s enzyme (P09871 438-688 limits assumed): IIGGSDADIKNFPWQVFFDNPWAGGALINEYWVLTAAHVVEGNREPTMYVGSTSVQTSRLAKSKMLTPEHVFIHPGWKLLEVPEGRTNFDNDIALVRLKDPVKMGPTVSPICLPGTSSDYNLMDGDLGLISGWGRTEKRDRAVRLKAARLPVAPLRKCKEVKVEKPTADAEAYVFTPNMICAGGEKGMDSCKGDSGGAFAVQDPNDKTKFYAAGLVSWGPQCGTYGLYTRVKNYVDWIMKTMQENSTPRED
Sequence of Human complement C1s enzyme (P09871 16-437 partner limits assumed): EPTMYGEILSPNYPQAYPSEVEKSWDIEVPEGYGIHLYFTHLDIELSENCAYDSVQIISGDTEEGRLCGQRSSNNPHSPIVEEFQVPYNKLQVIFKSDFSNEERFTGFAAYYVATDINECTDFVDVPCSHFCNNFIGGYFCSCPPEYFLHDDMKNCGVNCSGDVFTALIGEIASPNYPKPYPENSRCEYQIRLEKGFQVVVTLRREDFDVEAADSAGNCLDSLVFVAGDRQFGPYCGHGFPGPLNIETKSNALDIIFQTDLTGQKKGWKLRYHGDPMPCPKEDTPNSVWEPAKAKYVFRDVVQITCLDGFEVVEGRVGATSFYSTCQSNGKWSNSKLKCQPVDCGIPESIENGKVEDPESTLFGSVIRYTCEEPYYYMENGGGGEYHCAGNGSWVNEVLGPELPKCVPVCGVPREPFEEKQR

IC50, < 100 nM:
C[C@@H](NC(=O)[C@@H]1C[C@](F)(CF)CN1C(=O)CNC(=O)c1ccc2c(c1)Oc1ccccc1S2)c1cc(C(=N)N)cs1 [Compound 327, (2S,4R)—N—((R)-1-(4-carbamimidoylthiophen-2-yl)ethyl)-4-fluoro-4-(fluoromethyl)-1-((phenoxathiine-3-carbonyl)glycyl)pyrrolidine-2-carboxamide]
C[C@@H](NC(=O)[C@@H]1C[C@@H](OC(F)F)CN1C(=O)CNC(=O)c1ccc2c(c1)Oc1ccccc1S2)c1cc(C(=N)N)cs1 [Compound 328, (2S,4R)—N—((R)-1-(4-carbamimidoylthiophen-2-yl)ethyl)-4-(difluoromethoxy)-1-((phenoxathiine-3-carbonyl)glycyl)pyrrolidine-2-carboxamide]
C[C@@H](NC(=O)[C@@H]1C[C@](F)(CF)CN1C(=O)CNC(=O)c1cccc(-c2ccc(F)cc2)c1)c1cc(C(=N)N)cs1 [Compound 329, (2S,4R)—N—((R)-1-(4-carbamimidoylthiophen-2-yl)ethyl)-4-fluoro-1-((4′-fluoro-[1,1′-biphenyl]-3-carbonyl)glycyl)-4-(fluoromethyl)pyrrolidine-2-carboxamide]
C[C@@H](NC(=O)[C@@H]1C[C@@H](OC(F)F)CN1C(=O)CNC(=O)c1cccc(-c2ccc(F)cc2)c1)c1cc(C(=N)N)cs1 [Compound 330, (2S,4R)—N—((R)-1-(4-carbamimidoylthiophen-2-yl)ethyl)-4-(difluoromethoxy)-1-((4′-fluoro-[1,1′-biphenyl]-3-carbonyl)glycyl)pyrrolidine-2-carboxamide]
C[C@@H](NC(=O)[C@@H]1CC2(CN1C(=O)CNC(=O)c1ccc3cc4ccccc4nc3c1)OCCO2)c1cc(C(=N)N)cs1 [Compound 331, (S)-7-((acridine-3-carbonyl)glycyl)-N—((R)-1-(4-carbamimidoylthiophen-2-yl)ethyl)-1,4-dioxa-7-azaspiro[4.4]nonane-8-carboxamide]
C[C@@H](NC(=O)[C@@H]1C[C@@H](S(C)(=O)=O)CN1C(=O)CNC(=O)c1ccc2c(c1)Oc1ccccc1S2)c1cc(C(=N)N)cs1 [Compound 333, (2S,4R)—N—((R)-1-(4-carbamimidoylthiophen-2-yl)ethyl)-4-(methylsulfonyl)-1-((phenoxathiine-3-carbonyl)glycyl)pyrrolidine-2-carboxamide]
C[C@@H](NC(=O)[C@@H]1C[C@@H](S(C)(=O)=O)CN1C(=O)CNC(=O)c1cccc(-c2ccc(F)cc2)c1)c1cc(C(=N)N)cs1 [Compound 334, (2S,4R)—N—((R)-1-(4-carbamimidoylthiophen-2-yl)ethyl)-1-((4′-fluoro-[1,1′-biphenyl]-3-carbonyl)glycyl)-4-(methylsulfonyl)pyrrolidine-2-carboxamide]
Cc1ccc(-c2cccc(C(=O)NCC(=O)N3C[C@H](S(C)(=O)=O)C[C@H]3C(=O)N[C@H](C)c3cc(C(=N)N)cs3)c2)cc1 [Compound 335, (2S,4R)—N—((R)-1-(4-carbamimidoylthiophen-2-yl)ethyl)-1-((4′-methyl-[1,1′-biphenyl]-3-carbonyl)glycyl)-4-(methylsulfonyl)pyrrolidine-2-carboxamide]
C[C@@H](NC(=O)[C@@H]1C[C@](F)(CF)CN1C(=O)CNC(=O)c1ccc2c(c1)-c1ccccc1S2(=O)=O)c1cc(C(=N)N)cs1 [Compound 336, (2S,4R)—N—((R)-1-(4-carbamimidoylthiophen-2-yl)ethyl)-1-((5,5-dioxidodibenzo[b,d]thiophene-2-carbonyl)glycyl)-4-fluoro-4-(fluoromethyl) pyrrolidine-2-carboxamide]
C[C@@H](NC(=O)[C@@H]1C[C@@H](OC(F)F)CN1C(=O)CNC(=O)c1ccc2c(c1)-c1ccccc1S2(=O)=O)c1cc(C(=N)N)cs1 [Compound 337, (2S,4R)—N—((R)-1-(4-carbamimidoylthiophen-2-yl)ethyl)-4-(difluoromethoxy)-1-((5,5-dioxidodibenzo[b,d]thiophene-2-carbonyl)glycyl) pyrrolidine-2-carboxamide]
C[C@@H](NC(=O)[C@@H]1CC2(CN1C(=O)Cc1ccc(-c3ccccc3)cc1)OCCO2)c1cc(C(=N)N)cs1 [Compound 338, (S)-7-(2-([1,1′-biphenyl]-4-yl)acetyl)-N—((R)-1-(4-carbamimidoylthiophen-2-yl)ethyl)-1,4-dioxa-7-azaspiro[4.4]nonane-8-carboxamide]
C[C@@H](NC(=O)[C@@H]1C[C@@H](S(C)(=O)=O)CN1C(=O)CNC(=O)c1ncc(-c2ccccc2)cc1F)c1cc(C(=N)N)cs1 [Compound 339, N-(2-((2S,4R)-2-(((R)-1-(4-carbamimidoylthiophen-2-yl)ethyl)carbamoyl)-4-(methylsulfonyl)pyrrolidin-1-yl)-2-oxoethyl)-3-fluoro-5-phenylpicolinamide]
C[C@@H](NC(=O)[C@@H]1C[C@@H](S(C)(=O)=O)CN1C(=O)CNC(=O)c1ccc2[nH]c3ccccc3c2c1)c1cc(C(=N)N)cs1 [Compound 340, N-(2-((2S,4R)-2-(((R)-1-(4-carbamimidoylthiophen-2-yl)ethyl)carbamoyl)-4-(methylsulfonyl)pyrrolidin-1-yl)-2-oxoethyl)-9H-carbazole-3-carboxamide]
C[C@@H](NC(=O)[C@@H]1C[C@](F)(CF)CN1C(=O)CNC(=O)c1ccc2[nH]c3ccccc3c2c1)c1cc(C(=N)N)cs1 [Compound 341, N-(2-((2S,4R)-2-(((R)-1-(4-carbamimidoylthiophen-2-yl)ethyl)carbamoyl)-4-fluoro-4-(fluoromethyl)pyrrolidin-1-yl)-2-oxoethyl)-9H-carbazole-3-carboxamide]
C[C@@H](NC(=O)[C@@H]1C[C@@H](S(C)(=O)=O)CN1C(=O)CNC(=O)c1ccc2c(c1)-c1ccccc1S2(=O)=O)c1cc(C(=N)N)cs1 [Compound 342, (2S,4R)—N—((R)-1-(4-carbamimidoylthiophen-2-yl)ethyl)-1-((5,5-dioxidodibenzo[b,d]thiophene-2-carbonyl)glycyl)-4-(methylsulfonyl) pyrrolidine-2-carboxamide]
COC[C@@]1(F)C[C@@H](C(=O)N[C@H](C)c2cc(C(=N)N)cs2)N(C(=O)CNC(=O)c2ccc3c(c2)sc2ccccc23)C1 [Compound 343, (2S,4R)—N—((R)-1-(4-carbamimidoylthiophen-2-yl)ethyl)-1-((dibenzo[b,d]thiophene-3-carbonyl)glycyl)-4-fluoro-4-(methoxymethyl)pyrrolidine-2-carboxamide]
COC[C@@]1(F)C[C@@H](C(=O)N[C@H](C)c2cc(C(=N)N)cs2)N(C(=O)CNC(=O)c2ccc3c(c2)C(C)(C)c2ccccc2-3)C1 [Compound 344, (2S,4R)—N—((R)-1-(4-carbamimidoylthiophen-2-yl)ethyl)-1-((9,9-dimethyl-9H-fluorene-2-carbonyl)glycyl)-4-fluoro-4-(methoxymethyl) pyrrolidine-2-carboxamide]
